Key:
[1] = tested on: Fusarium oxysporum f. sp. vasinfectum; assay: Linear (radial) growth of fungi in vitro on potato dextrose agar with allicin; assay type: cell-based; conditions: PDA; for Effect on growth of the fungus (in words): in vitro; for Linear growth, mm radius of growth: 0.1 ml allicin solution 2 mg/ml
Procedure: (§1) Pure allicin in aqueous solution at 2 mg/ml was obtained as previously described in International PCT Publication WO 97/39115, following the interaction of synthetic, nature-identical alliin (allylcysteine sulfoxide) with a preparation of stabilized garlic alliinase. Fungal plant pathogens were grown in soil as previously described (Ko et al, 1971). Contamination of soil with Rhizoctonia solani and infection of bean seedlings was determined as previously reported (Chet, 1987).
(§2) The effect of allicin on the growth of a number of known soil fungal pathogens was examined in vitro. Fungi were innoculated in Petri dishes containing potato dextrose agar (PDA, Difco) and the radial growth rate of the fungi was measured every 24 hours. The effect of the addition of 0.1 ml of a solution of allicin (2.0 mg/ml) on the radial growth rate of the pathogen was determined after 24, 48, 72 and 96 hours.

Rhizoctonia solani Kuhn = assay: as above; assay type: cell-based; conditions: PDA; for Effect on growth of the fungus (in words): in vitro; for Linear growth, mm radius of growth: 0.1 ml allicin solution 2 mg/ml
Procedure: as §1, §2

Sclerotinia sclerotiorum = assay: as above; assay type: cell-based; conditions: PDA; for Effect on growth of the fungus (in words): in vitro; for Linear growth, mm radius of growth: 0.1 ml allicin solution 2 mg/ml
Procedure: as §1, §2

Sclerotium Rolfsii Sacc. = assay: as above; assay type: cell-based; conditions: PDA; for Effect on growth of the fungus (in words): in vitro; for Linear growth, mm radius of growth: 0.1 ml allicin solution 2 mg/ml
Procedure: as §1, §2

Trichoderma hurzianum = assay: as above; assay type: cell-based; conditions: PDA; for Effect on growth of the fungus (in words): in vitro; for Linear growth, mm radius of growth: 0.1 ml allicin solution 2 mg/ml
Procedure: as §1, §2

Rhizoctonia solani = assay: Diseased bean plants (Phaseolus vulgaris L.) grown in Rhizoctonia solani contaminated soil pre-treated with allicin; assay type: in vivo
Procedure: as §1
Boxes with raw red-brown, sandy loam soil (0.5 Kg) 1.0 were precontaminated with viable Rhizoctonia solani. The fungi-contaminated soil in the boxes were subsequently irrigated with aqueous solutions (30 ml/box) containing different concentrations of allicin (A: 0.31 mg allicin/ml; B: 0.62 mg allicin/ml; C: 0.94 mg allicin/ml; D: 1.25 mg allicin/ml). Irrigations were repeated 3 times, with 3 days intervals between treatments. Controls were irrigated with similar volumes of water. Four soil replicates were irrigated for each allicin concentration as well as for the control. Following each irrigation step, the soil boxes were closed in nylon bags. Four days after the last irrigation, the bags were opened and the boxes with the soil ventilated for 5 more days.
Bean seeds (Phaseolus vulgaris L.) (10/box) were then planted in each of the boxes and the growth and development of disease in the plants was determined after 14 days. As shown in Table 2 and FIGS. 1-2, black columns, 86% of the control plants became diseased whereas in soil pre-irrigated with 0.94 (FIGS. 1-2, C) and 1.25 (FIGS. 1-2, D) mg/ml allicin, less than 20% of the plants became diseased (decrease of >80% in diseased plants, FIG. 2). The effect of allicin was dose-dependent and at the lowest concentration tested (0.31 mg allicin/ml), the decrease in the number of diseased plants was only 14% (Table 2 and FIGS. 1-2, black columns).
In order to test the time length efficacy of soil that was pre-treated with allicin, an additional experiment was done in the same soil boxes. After the first cycle of the bean growth experiment for 14 days described above, the plants were removed and a second cycle of bean growth was conducted whereby a new set of bean seeds was immediately seeded in the same soil boxes and the development of disease in the plants grown in this second cycle was determined after 14 days. The results are shown in Table 2 and in FIGS. 1-2, gray columns. […] Some protection (33%) was also observed in soils irrigated with 0.94 mg allicin/ml (C).

Molecule: allylcysteine sulfoxide [alliin, reference compound]
- Effect on growth of the fungus (in words) [1]: no effect
- Effect on growth of the fungus (in words) (Rhizoctonia solani Kuhn): no effect
- Effect on growth of the fungus (in words) (Sclerotinia sclerotiorum): no effect
- Effect on growth of the fungus (in words) (Sclerotium Rolfsii Sacc.): no effect
- Effect on growth of the fungus (in words) (Trichoderma hurzianum): no effect

Molecule: C=CCS[S+]([O-])CC=C (stereo not shown) [Allicin, thio-2-propene-1-sulfinic acid S-allyl ester]
- Linear growth, mm radius of growth ([1]; 24 hrs): 2.5 mm
- Linear growth, mm radius of growth ([1]; 48 hrs): 7.5 mm
- Linear growth, mm radius of growth ([1]; 72 hrs): 12.5 mm
- Linear growth, mm radius of growth ([1]; 96 hrs): 15 mm
- Effect on growth of the fungus (in words) [1]: Very significant inhibition of growth
- Linear growth, mm radius of growth (Rhizoctonia solani Kuhn; 24 hrs): 2.5 mm
- Linear growth, mm radius of growth (Rhizoctonia solani Kuhn; 48 hrs): 7.5 mm
- Linear growth, mm radius of growth (Rhizoctonia solani Kuhn; 72 hrs): 15 mm
- Effect on growth of the fungus (in words) (Rhizoctonia solani Kuhn): Very significant inhibition of growth
- Linear growth, mm radius of growth (Sclerotinia sclerotiorum; 24 hrs): 0.5 mm
- Linear growth, mm radius of growth (Sclerotinia sclerotiorum; 48 hrs): 7.5 mm
- Linear growth, mm radius of growth (Sclerotinia sclerotiorum; 72 hrs): 20 mm
- Linear growth, mm radius of growth (Sclerotinia sclerotiorum; 96 hrs): 45 mm
- Effect on growth of the fungus (in words) (Sclerotinia sclerotiorum): Very significant inhibition of growth
- Linear growth, mm radius of growth (Sclerotium Rolfsii Sacc.; 24 hrs): 0 mm
- Linear growth, mm radius of growth (Sclerotium Rolfsii Sacc.; 48 hrs): 2.5 mm
- Linear growth, mm radius of growth (Sclerotium Rolfsii Sacc.; 72 hrs): 15 mm
- Effect on growth of the fungus (in words) (Sclerotium Rolfsii Sacc.): Very significant inhibition of growth
- Linear growth, mm radius of growth (Trichoderma hurzianum; 24 hrs): 2.5 mm
- Linear growth, mm radius of growth (Trichoderma hurzianum; 48 hrs): 7.5 mm
- Linear growth, mm radius of growth (Trichoderma hurzianum; 72 hrs): 22.5 mm
- Effect on growth of the fungus (in words) (Trichoderma hurzianum): Very significant inhibition of growth
- Diseased Plants (%) (Rhizoctonia solani; First Cycle (14 days after planting), treatment A: 0.31 mg allicin/ml (30 ml), 3 irrigations, 0.5 Kg soil): 74%
- Diseased Plants (%) (Rhizoctonia solani; First Cycle (14 days after planting), treatment B: 0.62 mg allicin/ml (30 ml), 3 irrigations, 0.5 Kg soil): 39%
- Diseased Plants (%) (Rhizoctonia solani; First Cycle (14 days after planting), treatment C: 0.94 mg allicin/ml (30 ml), 3 irrigations, 0.5 Kg soil): 16%
- Diseased Plants (%) (Rhizoctonia solani; First Cycle (14 days after planting), treatment C: 0.94 mg allicin/ml (30 ml), 3 irrigations, 0.5 Kg soil, listed as allicin): less than 20%
- Diseased Plants (%) (Rhizoctonia solani; First Cycle (14 days after planting), treatment D: 1.25 mg allicin/ml (30 ml), 3 irrigations, 0.5 Kg soil): 18%
- Diseased Plants (%) (Rhizoctonia solani; First Cycle (14 days after planting), treatment D: 1.25 mg allicin/ml (30 ml), 3 irrigations, 0.5 Kg soil, listed as allicin): less than 20%
- Diseased Reduction (%) (Rhizoctonia solani; First Cycle, treatment A: 0.31 mg allicin/ml (30 ml)): 14%
- Diseased Reduction (%) (Rhizoctonia solani; First Cycle, treatment B: 0.62 mg allicin/ml (30 ml)): 55%
- Diseased Reduction (%) (Rhizoctonia solani; First Cycle, treatment C: 0.94 mg allicin/ml (30 ml)): 81%
- Diseased Reduction (%) (Rhizoctonia solani; First Cycle, treatment C: 0.94 mg allicin/ml (30 ml), listed as allicin): > 80%
- Diseased Reduction (%) (Rhizoctonia solani; First Cycle, treatment D: 1.25 mg allicin/ml (30 ml)): 90%
- Diseased Reduction (%) (Rhizoctonia solani; First Cycle, treatment D: 1.25 mg allicin/ml (30 ml), listed as allicin): > 80%
- Diseased Plants (%) (Rhizoctonia solani; Second Cycle (14 days after replanting), treatment A: 0.31 mg allicin/ml (30 ml)): 90%
- Diseased Plants (%) (Rhizoctonia solani; Second Cycle (14 days after replanting), treatment A: 0.31 mg allicin/ml (30 ml), listed as allicin): almost identical to that of the controls
- Diseased Plants (%) (Rhizoctonia solani; Second Cycle (14 days after replanting), treatment B: 0.62 mg allicin/ml (30 ml)): 80%
- Diseased Plants (%) (Rhizoctonia solani; Second Cycle (14 days after replanting), treatment B: 0.62 mg allicin/ml (30 ml), listed as allicin): almost identical to that of the controls
- Diseased Plants (%) (Rhizoctonia solani; Second Cycle (14 days after replanting), treatment C: 0.94 mg allicin/ml (30 ml)): 60%
- Diseased Plants (%) (Rhizoctonia solani; Second Cycle (14 days after replanting), treatment D: 1.25 mg allicin/ml (30 ml)): 30%
- Diseased Reduction (%) (Rhizoctonia solani; Second Cycle, treatment A: 0.31 mg allicin/ml (30 ml)): 0%
- Diseased Reduction (%) (Rhizoctonia solani; Second Cycle, treatment B: 0.62 mg allicin/ml (30 ml)): 11%
- Diseased Reduction (%) (Rhizoctonia solani; Second Cycle, treatment C: 0.94 mg allicin/ml (30 ml)): 33%
- Diseased Reduction (%) (Rhizoctonia solani; Second Cycle, treatment D: 1.25 mg allicin/ml (30 ml)): 66%
